Test results published in ChEMBL document CHEMBL1135306, “Synthesis and evaluation of vancomycin and vancomycin aglycon analogues that bear modifications in the residue 3 asparagine” (2002).
Converted amounts (≈) assume the structure as drawn.

Columns and labels:
Assay type in all cases: functional
Enterococcus faecalis [1] = assay: In vitro antibacterial activity against vancomycin resistant Enterococcus faecalis (VanB, ATCC 51299)
Enterococcus faecium [2] = assay: In vitro antibacterial activity against vancomycin resistant Enterococcus faecium
Enterococcus faecium [3] = assay: In vitro antibacterial activity against Enterococcus faecium (ATCC 35667)
Staphylococcus aureus = assay: In vitro antibacterial activity against methicillin sensitive Staphylococcus aureus (ATCC 25923)
Enterococcus faecalis [4] = assay: In vitro antibacterial activity against vancomycin resistant Enterococcus faecalis (VanA, BM4166)

SMILES | MIC (Enterococcus faecalis [1]) [µg/mL] | MIC (Enterococcus faecium [2]) [µg/mL] | MIC (Enterococcus faecium [3]) [µg/mL] | MIC (Staphylococcus aureus) [µg/mL] | MIC (Enterococcus faecalis [4]) [µg/mL]
CN[C@H](CC(C)C)C(=O)N[C@H]1C(=O)N[C@@H](CC(N)=O)C(=O)N[C@H]2C(=O)N[C@H]3C(=O)N[C@H](C(=O)N[C@H](C(=O)O)c4cc(O)cc(O)c4-c4cc3ccc4O)[C@H](O)c3ccc(c(Cl)c3)Oc3cc2cc(c3O)Oc2ccc(cc2Cl)[C@H]1O [VANCOMYCIN AGLYCON] | 80 (≈ 69.9 µM) | 160 (≈ 140 µM) | 2.5 (≈ 2.19 µM) | 0.625 (≈ 0.546 µM) | 640 (≈ 559 µM)
CN[C@H](CC(C)C)C(=O)N[C@H]1C(=O)N[C@@H](CC#N)C(=O)N[C@H]2C(=O)N[C@H]3C(=O)N[C@H](C(=O)N[C@H](C(=O)OC)c4cc(OC)cc(OC)c4-c4cc3ccc4OC)[C@H](O)c3ccc(c(Cl)c3)Oc3cc2cc(c3OC)Oc2ccc(cc2Cl)[C@H]1O | 2.5 (≈ 2.09 µM) | 40 (≈ 33.4 µM) | 1.25 (≈ 1.05 µM) | 0.625 (≈ 0.523 µM) | 40 (≈ 33.4 µM)
CN[C@H](CC(C)C)C(=O)N[C@H]1C(=O)N[C@@H](CC(N)=O)C(=O)N[C@H]2C(=O)N[C@H]3C(=O)N[C@H](C(=O)N[C@H](C(=O)OC)c4cc(O)cc(O)c4-c4cc3ccc4O)[C@H](O)c3ccc(c(Cl)c3)Oc3cc2cc(c3O)Oc2ccc(cc2Cl)[C@H]1O | 320 (≈ 276 µM) | 320 (≈ 276 µM) | 10 (≈ 8.64 µM) | 5 (≈ 4.32 µM) | 640 (≈ 553 µM)
CN[C@H](CC(C)C)C(=O)N[C@H]1C(=O)N[C@@H](CC#N)C(=O)N[C@H]2C(=O)N[C@H]3C(=O)N[C@H](C(=O)N[C@H](C(=O)O)c4cc(OC)cc(OC)c4-c4cc3ccc4OC)[C@H](O)c3ccc(c(Cl)c3)Oc3cc2cc(c3OC)Oc2ccc(cc2Cl)[C@H]1O | 20 (≈ 16.9 µM) | 160 (≈ 135 µM) | 2.5 (≈ 2.11 µM) | 0.31 (≈ 0.262 µM) | 160 (≈ 135 µM)
CN[C@H](CC(C)C)C(=O)N[C@H]1C(=O)N[C@@H](CC(N)=O)C(=O)N[C@H]2C(=O)N[C@H]3C(=O)N[C@H](C(=O)N[C@H](C(=O)OC)c4cc(O)cc(O)c4-c4cc3ccc4O)[C@H](O)c3ccc(c(Cl)c3)Oc3cc2cc(c3O[C@@H]2O[C@H](CO)[C@@H](O)[C@H](O)[C@H]2O[C@H]2C[C@](C)(N)[C@H](O)[C@H](C)O2)Oc2ccc(cc2Cl)[C@H]1O | 80 (≈ 54.7 µM) | 640 (≈ 437 µM) | 2.5 (≈ 1.71 µM) | 2.5 (≈ 1.71 µM) | 640 (≈ 437 µM)
CN[C@H](CC(C)C)C(=O)N[C@H]1C(=O)N[C@@H](CC(N)=O)C(=O)N[C@H]2C(=O)N[C@H]3C(=O)N[C@H](C(=O)N[C@H](C(=O)OC)c4cc(OC)cc(OC)c4-c4cc3ccc4OC)[C@H](O)c3ccc(c(Cl)c3)Oc3cc2cc(c3OC)Oc2ccc(cc2Cl)[C@H]1O | 10 (≈ 8.24 µM) | 40 (≈ 32.9 µM) | 1.25 (≈ 1.03 µM) | 0.625 (≈ 0.515 µM) | 40 (≈ 32.9 µM)
CN[C@H](CC(C)C)C(=O)N[C@H]1C(=O)N[C@@H](CC(N)=O)C(=O)N[C@H]2C(=O)N[C@H]3C(=O)N[C@H](C(=O)N[C@H](C(=O)O)c4cc(O)cc(O)c4-c4cc3ccc4O)[C@H](O)c3ccc(c(Cl)c3)Oc3cc2cc(c3O[C@@H]2O[C@H](CO)[C@@H](O)[C@H](O)[C@H]2O[C@H]2C[C@](C)(N)[C@H](O)[C@H](C)O2)Oc2ccc(cc2Cl)[C@H]1O [VANCOMYCIN] | 125 (≈ 86.3 µM) | 500 (≈ 345 µM) | 2.5 (≈ 1.73 µM) | 1.25 (≈ 0.863 µM) | 2000 (≈ 1380 µM)
CN[C@H](CC(C)C)C(=O)N[C@H]1C(=O)N[C@@H](CC#N)C(=O)N[C@H]2C(=O)N[C@H]3C(=O)N[C@H](C(=O)N[C@H](C(=O)O)c4cc(O)cc(O)c4-c4cc3ccc4O)[C@H](O)c3ccc(c(Cl)c3)Oc3cc2cc(c3O)Oc2ccc(cc2Cl)[C@H]1O | 320 (≈ 284 µM) | 640 (≈ 568 µM) | 20 (≈ 17.8 µM) | 10 (≈ 8.88 µM) | 640 (≈ 568 µM)
CN[C@H](CC(C)C)C(=O)N[C@H]1C(=O)N[C@@H](CC#N)C(=O)N[C@H]2C(=O)N[C@H]3C(=O)N[C@H](C(=O)N[C@H](C(=O)OC)c4cc(O)cc(O)c4-c4cc3ccc4O)[C@H](O)c3ccc(c(Cl)c3)Oc3cc2cc(c3O)Oc2ccc(cc2Cl)[C@H]1O | 320 (≈ 281 µM) | 320 (≈ 281 µM) | 5 (≈ 4.39 µM) | 1.25 (≈ 1.1 µM) | 320 (≈ 281 µM)
CN[C@H](CC(C)C)C(=O)N[C@H]1C(=O)N[C@@H](CC#N)C(=O)N[C@H]2C(=O)N[C@H]3C(=O)N[C@H](C(=O)N[C@H](C(=O)OC)c4cc(O)cc(O)c4-c4cc3ccc4O)[C@H](O)c3ccc(c(Cl)c3)Oc3cc2cc(c3O[C@@H]2O[C@H](CO)[C@@H](O)[C@H](O)[C@H]2O[C@H]2C[C@](C)(N)[C@H](O)[C@H](C)O2)Oc2ccc(cc2Cl)[C@H]1O | 160 (≈ 111 µM) | 320 (≈ 221 µM) | 10 (≈ 6.92 µM) | 2.5 (≈ 1.73 µM) | 640 (≈ 443 µM)
CN[C@H](CC(C)C)C(=O)N[C@H]1C(=O)N[C@@H](CC(N)=O)C(=O)N[C@H]2C(=O)N[C@H]3C(=O)N[C@H](C(=O)N[C@H](C(=O)O)c4cc(OC)cc(OC)c4-c4cc3ccc4OC)[C@H](O)c3ccc(c(Cl)c3)Oc3cc2cc(c3OC)Oc2ccc(cc2Cl)[C@H]1O | 20 (≈ 16.7 µM) | 40 (≈ 33.3 µM) | 2.5 (≈ 2.08 µM) | 0.625 (≈ 0.521 µM) | 40 (≈ 33.3 µM)
CN[C@H](CC(C)C)C(=O)N[C@H]1C(=O)N[C@@H](CC#N)C(=O)N[C@H]2C(=O)N[C@H]3C(=O)N[C@H](C(=O)N[C@H](C(=O)O)c4cc(O)cc(O)c4-c4cc3ccc4O)[C@H](O)c3ccc(c(Cl)c3)Oc3cc2cc(c3O[C@@H]2O[C@H](CO)[C@@H](O)[C@H](O)[C@H]2O[C@H]2C[C@](C)(N)[C@H](O)[C@H](C)O2)Oc2ccc(cc2Cl)[C@H]1O | 320 (≈ 224 µM) | 320 (≈ 224 µM) | 80 (≈ 55.9 µM) | 20 (≈ 14 µM) | 320 (≈ 224 µM)
